The values below come from patent US7259278B2, “Anti-S-phase tubulin ligands” (Cytoskeleton Inc., priority 2000, dated 2007).

One assay has as its system Prostate carcinoma. As to the kind of experiment: Prostate carcinoma model. The assay is classed as in vivo, mice. The conditions noted are these: 90 days after tumor implant. Here is the method: FIG. 11. Prostate carcinoma inhibition by IAABE. • *—N,N-dimethylacetamide, propylene glycol and Tween 80 (1:2:1 v/v/v) • 1—2.5×10^6 tumor cells were injected s.c. on day 0, treatment started at day 1. • 2—TI%=Tumor growth inhibition 1 week after last treatment. • 3—TF/T=Tumor free mice at day 90 after tumor implant.

Assay [1] deals with mitochondrial permeability transition pore complex. As to conditions: read-out: Kd of interaction with a component (probably tubulin) on the mitochondrial outer membrane; cited from earlier work.
Assay [2] concerns CEM cells. The assay is described as follows: Immunofluorescence staining of microtubule structure and apoptotic DNA analysis. The assay is classed as cell-based. As to conditions: ID90 concentration. The method, then:
FIG. 5. Interferences with the formation of microtubule structure in IAABE treated CEM cells. […] Insert is DNA extracted from the same samples run on 1% agarose gels and stained with ethidium bromide. Note absence of microtubule structure and appearance of apoptotic nuclei in IAABE treated cells. Note strong signal of apoptotic DNA ladder in IAABE treated cells compared to vinblastine and paclitaxel samples.
Immunofluorescence staining of microtubule structure. CEM cells incubated in the presence or absence of IAABE were collected and centrifuged in a Cytospin centrifuge at 700 xg for 5 min. The slides were air dried and fixed with methanol at −20° C. for 20 min. The slides were incubated in PBS containing 1% BSA at 37° C. for 30 min. After washing with PBS for 3 min, cells on the slides were covered with 30 ul of antihuman beta-tubulin monoclonal antibody (4 ug/ml; Accurate Antibody, Westbury, N.Y.) and placed in a humid chamber at 24° C. for 60 min. The slides were washed with PBS three times for 3 min each, followed by staining with 10 ul of FTTC-labeled goat anti-mouse antibody (Coulter, Hialeah, Fla.) in a humid chamber at 24° C. for 60 min. After washing in PBS, the stained cells were visualized under a fluorescence microscope (model MC63, Zeiss, Jena, Germany).
Apoptotic DNA analysis. […]

The test system of assay [3] is CEM cells. As to conditions: 4 n DNA; cited from earlier work.
Assay [4] deals with lymphoma cells (Daudi/wt and Daudi/MDR). The assay is described as follows: Cytotoxicity: cancericidal index, lymphoma cells versus normal cells. The assay is classed as cell-based, human. The method, then:
FIG. 9. Cytotoxicity of IAABE against different tumor cells.
Cytotoxicity assays. Cells in suspension were seeded into 96-well plates at 10^5 cells/well, and the compounds added, total well volume was 250 μl. Cells were cultured for 48 h and the viability measured by trypan blue exclusion. ID50 and ID90 values were determined by the concentration of compound required to induce cell death in 50 or 90% of cells respectively.

As usually defined, the Kd is the constant that tells how readily two partners part at equilibrium. Consider `CC(=O)O[C@H]1C(=O)[C@@]2(C)[C@H]([C@H](OC(=O)c3ccccc3)[C@]3(O)C[C@H](OC(=O)[C@H](O)[C@@H](NC(=O)c4ccccc4)c4ccccc4)C(C)=C1C3(C)C)[C@]1(OC(C)=O)CO[C@@H]1C[C@@H]2O` [paclitaxel], for which the tumor free mice result in the assay with Prostate carcinoma is reported as “no tumor free mice”. Besides, the Kd in assay [1] was 5 to 20 µM. Also, the “microtubule structure by immunofluorescence” value with CEM cells [2] was “dense mitotic spindle staining”. Moreover, in the assay with CEM cells [3], the “cell cycle phase of arrest” value is “G2/M phase”. Moreover, the “cancericidal index, ratio (ID50 normal cells/ID50 cancer cells)” value in assay [4] is on record as 24.
As for `CC[C@]1(O)C[C@@H]2CN(CCc3c([nH]c4ccccc34)[C@@](C(=O)OC)(c3cc4c(cc3OC)N(C)[C@H]3[C@@](O)(C(=O)OC)[C@H](OC(C)=O)[C@]5(CC)C=CCN6CC[C@]43[C@@H]65)C2)C1` [vinblastine], the tumor free mice result in the assay with Prostate carcinoma is reported as “no tumor free mice”. Moreover, in the assay on CEM cells [2], the “microtubule structure by immunofluorescence” value was “punctuated aggregates of tubulin”. For the same compound, the “cell cycle phase of arrest” value in the assay with CEM cells [3] is given as “G2/M phase”. For the same compound, the “cancericidal index, ratio (ID50 normal cells/ID50 cancer cells)” value in assay [4] is recorded as 42.
